From patent US10240133B2, “ERK-derived peptides and uses thereof” (Yeda Research and Development Co. Ltd., priority 2013, dated 2019)

Tests used:
HeLa and T47D cells = assay: Proliferation assay (Methylene Blue), optimal administration conditions; format: cell-based; settings: administered every 24 h in fresh medium
Procedure: FIGS. 9A-9B illustrate the dose response of the EPE peptides on melanoma cells proliferation. LOXIMVI (FIG. 9A) and A2352 (FIG. 9B) melanoma cells were treated with the indicated doses of the EPE or Scr peptides. Presented as percent of viable cells at 72 h/initial cell number.
All cells, except of MCF-10A, were seeded into 12-well cell plates in 1% FBS medium. MCF-10A cells were seeded in their complete medium diluted 5 fold. DMSO, Scr peptide, EPE peptide, or U0126 (final concentration of 10 μM each) were added to the appropriated wells four hours later. Every day medium was changed to fresh one containing the same agents. The number of viable cells was measured by Methylene Blue assay at 72 h after cell seeding. Shortly, cells were fixed with 4% Formaldehyde for 2 h at 23° C., washed once with 0.1M Borate Buffer pH 8.5 and stained with of 1% Methylene Blue in 0.1M Borate Buffer for 10 min. Color was extracted by adding 0.1 M HCl for 3 h at 23° C., and examined at 595 nm. For time course experiments, viable cells were measured at 0, 24, 48, 72 and 96 h after cell seeding. For dose response experiments we treaded the cells with 0.1, 1, 3, 10, or 30 μM of peptides for 72 h, as described above.

[1] = target: T1, interaction of Imp7 with ERK (Homo sapiens, UniProt O95373); assay: Coimmunoprecipitation of Imp7 with ERK; format: cell-based; settings: HeLa cells; 10 μM, 2 hours; TPA
T1 construct: endogenous in cells; host or cells: HeLa
T1 sequence (O95373 whole entry): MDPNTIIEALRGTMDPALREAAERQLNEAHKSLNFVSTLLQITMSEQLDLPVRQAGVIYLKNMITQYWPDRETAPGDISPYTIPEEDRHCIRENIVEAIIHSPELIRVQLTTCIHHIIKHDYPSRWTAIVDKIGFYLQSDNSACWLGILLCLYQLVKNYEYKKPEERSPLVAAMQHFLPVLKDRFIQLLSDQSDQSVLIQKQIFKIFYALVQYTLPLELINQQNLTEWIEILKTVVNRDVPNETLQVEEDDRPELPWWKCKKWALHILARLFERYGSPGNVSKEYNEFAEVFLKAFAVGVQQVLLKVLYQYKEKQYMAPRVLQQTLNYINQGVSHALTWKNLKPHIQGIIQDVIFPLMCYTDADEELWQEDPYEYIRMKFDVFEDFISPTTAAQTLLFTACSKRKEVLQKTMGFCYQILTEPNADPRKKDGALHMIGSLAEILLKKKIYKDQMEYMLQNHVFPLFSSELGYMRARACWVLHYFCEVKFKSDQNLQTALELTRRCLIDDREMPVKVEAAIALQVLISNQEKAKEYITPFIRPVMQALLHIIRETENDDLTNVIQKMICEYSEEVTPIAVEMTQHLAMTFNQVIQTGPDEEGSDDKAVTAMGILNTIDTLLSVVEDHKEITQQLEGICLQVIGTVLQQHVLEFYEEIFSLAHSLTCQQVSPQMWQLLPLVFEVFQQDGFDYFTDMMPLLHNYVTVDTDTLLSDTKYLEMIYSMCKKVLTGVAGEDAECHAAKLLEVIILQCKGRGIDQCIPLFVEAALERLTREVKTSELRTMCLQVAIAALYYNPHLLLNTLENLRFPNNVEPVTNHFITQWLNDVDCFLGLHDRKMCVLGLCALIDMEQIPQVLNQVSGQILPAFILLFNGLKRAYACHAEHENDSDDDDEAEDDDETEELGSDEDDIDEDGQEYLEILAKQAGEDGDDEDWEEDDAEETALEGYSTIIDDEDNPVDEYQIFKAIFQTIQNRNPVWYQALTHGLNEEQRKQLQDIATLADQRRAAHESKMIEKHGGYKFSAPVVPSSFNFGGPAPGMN
Procedure: (A) EPE peptide prevents ERK1/2-importin7 interaction. HeLa cells were serum starved (0.1%, 16 hours), pretreated with EPE peptide, scrambled peptide (10 μM, 2 hours) or DMSO, and then stimulated with TPA (250 nM, 15 min). ERK1 were precipitated with αgERK1 Ab; importin7 co-immunoprecipitated with ERK1 was detected by WB with αimportin7 Ab. […] T47D, HeLa, MDA-MB-231 and A2352 cells were serum starved (0.1%, 16 hours), pretreated with EPE peptide, scrambled peptide (10 μM, 2 hours) or DMSO control, and then stimulated with TPA (250 nM, indicated times). Cell extracts were subjected to Western blot analysis with the indicated Abs. (C) EPE peptide inhibits phosphorylation of c-Myc and Elk1 in B-Raf melanomas. A2158 and A2352 cells were treated with scrambled and EPE peptide for two hours and then stimulated with the indicated concentration of TPA for 30 min. […] (D) Quantification of some of the results in B and C. […]
(i) Preparation of cellular extracts for Western Blotting: Cells were rinsed twice with ice-cold PBS and scraped into Radio-immunoprecipitation assay buffer (RIPA; 137 mM NaCl, 20 mM Tris (pH 7.4), 10% glycerol, 1% Triton X-100, 0.5% deoxycholate, 0.1% SDS, 2 mM EDTA, 1 mM PMSF, and 20 μM leupeptin). The extracts were centrifuged (20,000×g, 15 min, 4° C.), and the supernatants were further analyzed by Western blotting. […]

**Q.** What does the source list for “GQLNHILGILGEPEQED (Synthetic peptide (EPE)) [EPE peptide, NTS-derived peptide with phosphomimetic EPE motif]”?
**A.** optimal administration conditions (maximal effect compared to Scr peptide) (HeLa and T47D cells): 10 µM; interaction of Imp7 with ERK [1]: prevented the interaction of Imp7 with ERK
